Values quoted from earlier work in US6656923B1, “Uncomplexed cyclodextrin compositions for odor and wrinkle control” (The Procter & Gamble Company, priority 1997, dated 2003).

## ClC=CC[N+]12CN3CN(CN(C3)C1)C2.[Cl-] [Dowicil 200, 1-(3-Chlorallyl)-3,5,7-triaza-1-azoniaadamantane chloride]
  solubility in water: freely soluble in water
